How the values were obtained:
VEGFA = VEGFA mRNA induction by 12-hour hypoxia in HEK293 cells (qRT-PCR); format: cell-based, human; conditions: hypoxia 12 hours
Description: In FIG. 3B, HEK293 cells were transiently transfected with SerRS^WT or SerRS^S101A/S241A constructs or empty control vector. 24 hours post-transfection, VEGFA mRNA induction by 12-hour-hypoxia treatment was monitored by qRT-PCR (means±SEM from four independent experiments; *P<0.05, **P<0.01, ***P<0.005). In FIG. 3C, HEK293 cells were transiently transfected with indicated constructs. 36 hours post-transfection, VEGFA mRNA induction by 12-hour-hypoxia treatment was monitored by qRT-PCR (means±SEM from four independent experiments; *P<0.0, **P<0.001, ***P<0.0001). The protein levels of SerRS, HIF-1α, and β-actin were examined by western blot (bottom).
Transient transfections were performed using Lipofectamine 2000 (ThermoFisher Scientific).
One gram of the total RNA from each sample was reversely transcribed to cDNA by M-MLV reverse transcriptase (Promega, Madison, Wis., USA). All real-time PCR reactions were performed using the StepOnePlus Real-Time PCR system (ThermoFisher Scientific) with SYBR Select Master Mix ThermoFisher Scientific). […] The PCR reaction program started at 95° C. for 10 min, followed by 45 cycles of 95° C. for 20 seconds and 60° C. for 1 min. Each experiment was carried out in triplicate. The VEGFA gene expression was normalized to that of β-ACTIN. Statistical analyses were performed with the software SigmaPlot (version 10.0). Student's t-test was used to analyze the changes between different groups.

ATM/ATR kinases = assay: In vitro phosphorylation of recombinant SerRS by DNA-activated HEK293 nuclear extract (p-SQ immunoblot, 32P-labelling); format: biochemical, human; conditions: recombinant his6-tagged protein, p-SQ antibody and 32P-labelling
Description: FIGS. 1A-G show SerRS is important for hypoxia induced VEGFA expression and is phosphorylated by ATM and ATR kinases under hypoxia at serine 101 and serine 241 residues. In FIG. 1A, HEK293 cells were transfected with shRNAs targeting SerRS (sh-SerRS) or GlyRS (sh-GlyRS), or nonspecific control shRNA (sh-Control). 48 hours post-transfection, cells were cultured under hypoxia or normoxia conditions for 12 hours. Immunoblot of cell lysates with anti-SerRS, anti-GlyRS and anti-β-actin antibodies (left). VEGFA expression levels were measured by qRT-PCR (right) and relative induction of VEGFA transcription under hypoxia were plotted (right, inset) (means±SEM. from four independent experiments; *P<0.01, **P<0.0001). […] The conserved ATM/ATR substrate motif residues are underlined. In FIG. 1C, recombinant his6-tagged human SerRS or GlyRS were incubated with γ-^32P-ATP and HEK293 cell nuclear extracts which are treated with or without double-stranded DNA oligoes mimicking DNA damage stimuli to activate ATM/ATR/DNA-PK kinases. Recombinant proteins were then purified by Ni-NTA beads and subjected to SDS-PAGE and autoradiography. In FIG. 1D, recombinant his6-tagged two human aminoacyl tRNA synthetases (AARS): TyrRS and GlyRS, wild type SerRS, or SerRS mutants with single or double substitutions of serine 101 and serine 241 with alanine (S101A, S241A, and S101A/S241A) were treated as described in FIG. 1C and phosphorylated recombinant proteins were immunoblotted with antibodies as indicated after purification by Ni-NTA beads. In FIG. 1E, HEK293 cells were cultured under hypoxia for 3, 6, and 12 hours. Phosphorylated SerRS was immunoblotted with specific anti-p-SQ antibody after SerRS proteins were immunoprecipitated (IP). Cell lysates were immunoblotted with indicated antibodies for known ATM and ATR substrates (Chk1 and P53). In FIG. 1F, Flag-tagged wild type and mutant SerRS constructs were transfected into HEK293 cells. 24 hours post-transfection, cells were treated with hypoxia stress for 12 hours and ectopically expressed SerRS was then purified by immunoprecipitation (IP) using anti-Flag antibody and immunoblot (IB) with anti-P-SQ antibody and anti-Flag antibody. In FIG. 1G, HEK293 cells were transfected with siRNA against ATM (si-ATM) or ATR (si-ATR) and treated with hypoxia stress for 12 hours. Phosphorylated SerRS were immunoblotted as described in FIG. 1E. […]
For protein purification, human SerRS and its mutant genes were subeloned into pET-20b(+) plasmid (Novagen, Darmstadt, Germany) and overexpressed in E. coli. […] The purities of the recombinant proteins were assessed by Coomassie blue staining following 4-12% Mini Gel (ThermoFisher Scientific) electrophoresis. Protein concentrations were determined using Bradford protein assay (BioRad, Hercules, Calif., USA). […]

SIRT2 = assay: Co-immunoprecipitation of SerRS with SIRT2 in HEK293 cells; format: cell-based, human; conditions: V5-tagged SIRT2 and Flag-tagged SerRS co-transfected
Description: The cytosolic fractions (Cy), nuclear fractions (Nu), and the whole cell lysates (WCL) were examined by immunoblot with antibodies against SerRS, nuclear protein Lamin A/C, and cytosolic protein α-tubulin. In FIG. 8B, HEK293 cells were transfected with Flag-tagged SerRS^WT, SerRS^S101A/S241A, or SerRS^S101D/S241D and subjected to cell fractionation and IB with anti-Flag, anti-Lamin A/C, and anti-α-tubulin antibodies. In FIG. 8C, HEK293 cells were cultured under hypoxia for 6 hours and 12 hours. Cells were then lysed and subjected to IP with anti-SerRS antibody and IB with both anti-SerRS and anti-SIRT2 antibodies. In FIG. 8D, HEK293 cells were co-transfected with V5-tagged SIRT2 and Flag-tagged wild type or mutant SerRS. 24 hours post-transfection, cell lysates were subjected to IP with anti-Flag antibody and IB with anti-V5 antibody.
Cells were resuspended with lysis buffer (20 mM Tris-HCl (pH 7.5), 150 mM NaCl, 1 mM of EDTA, 1 mM EGTA, 1% Triton X-100, 2.5 mM sodium pyrophosphate, 1 mM beta-glycerophosphate, 1 mM Na3VO4, and protease inhibitor cocktail) on ice. Supernatants were incubated with indicated antibodies and protein-G-conjugated agarose beads (ThermoFisher Scientific) for at least 2 h. […]

[1] = overexpression of SerRS construct, 24 hours post-transfection

| Substance | VEGFA induction under hypoxia (VEGFA; SerRS construct expressed while HIF is knocked down by shRNA (shHIF)) | VEGFA induction under hypoxia (VEGFA; [1]) | level of phosphorylation in vitro (ATM/ATR kinases) | interaction with SIRT2 (SIRT2) |
| --- | --- | --- | --- | --- |
| SerRS^S101A/S241A: phosphorylation-deficient human SerRS double mutant, serine 101 and 241 to alanine, SEQ ID NO: 4 (mouse version in matrigel assay) | completely inhibited VEGFA induction | significantly suppressed VEGFA induction | almost had no phosphorylation | as strong as with SerRS^WT |
| SerRS^S101D/S241D: SerRS with double substitutions of S101 and S241 with aspartic acid, mimics the phosphorylated SerRS |  |  |  | as strong as with SerRS^WT |
| SerRS^WT: wildtype human seryl-tRNA synthetase protein, SEQ ID NO: 1 (mouse wild type used in the 3B11 matrigel assay) |  | had no effect | robust phosphorylation |  |

From patent US20190167771A1, “CONTROL ANGIOGENESIS BY REGULATING PHOSPHORYLATION OF SERYL-tRNA SYNTHETASE (SerRS)” (The Scripps Research Institute, priority 2016, published 2019)
